Values after ≈ are worked out from the molar mass of the structure shown. Like-named read-outs stand apart in the source and are kept apart here.
Legend:
[1] = tested on: C. parapsilosis; test: MIC by impregnated disk method, Candida parapsilosis; type: cell-based; conditions: Lodderomyces parapsilosis
Experimental: (§1) Stock solutions of the antifungal agents to be tested are preferably prepared by diluting the antifungal agents in the proper nutrient medium. It is presently preferred to prepare dilutions in 10 ml of the proper medium to give the following final concentrations when applied to the disks (all quantities in micrograms per milliliter): 0.05, 0.08, 0.09, 0.1; 0.1 increment increases to 0.9, 1.0; 0.5 increment increases to 10.0; and 12.0, 14.0, 20.0, 25.0 and 50.0. Disks have been prepared by placing 0.05 ml of the above dilutions of antifungal agent containing medium on 6.5 mm diameter disks in 0.01 or 0.02 ml increments. The impregnated disks are then allowed to dry at a temperature preferably below about 10° C. […] The disks may also be dried by a lyophilization or freeze drying process.
(§2) To perform the tests in accordance with the present inventions, disks impregnated with various concentrations of antifungal agent and nutrient medium and a control disk impregnated only with the corresponding nutrient medium are placed on the fungus to be tested which has been applied to the non-nutrient medium. The disks are the inoculated non-nutrient medium are then incubated at a suitable temperature for a sufficient time to promote growth of the fungus. Any temperature is suitable if it will promote growth of the fungus without adversely affecting the fungus or the activity of the antifungal agent or agents tested. The time of incubation can be determined by observing the extent of growth around the control disk. […] The zones of growth or inhibition around the disks were read at 6, 12, 24, 36 and 48 hours after the disks were placed on the tested fungus.
(§3) The minimum inhibitory concentration is defined as the lowest concentration of antifungal agent which inhibits visible growth. The disks containing concentrations of antifungal agents below the minimum inhibitory concentration show circumscribed growth of the fungus around the disk. Disks containing concentrations of antifungal agent at or above the minimum inhibitory concentration show no circumscribed growth.
(§4) Clinical isolates of various fungi listed in Table 1 were obtained from different patients diagnosed as having fungal infections. The fungal inocula were prepared by using a 24-48 hour cultures grown in yeast nitrogen base containing 1% glucose and 0.15% asparagine. After centrifuging, the supernatant was removed, the sedimented cells were washed twice with sterile distilled water and a cell suspension was adjusted to 80% transmission at 520 nm using a Beckman DB-GT grating spectrophotometer.
(§5) Sterile liquified 2% purified agar was placed in petri dishes and allowed to harden. The surface of the agar was inoculated with a sterile cotton swab saturated with a suspension of an organism. The uniformly swabbed plates were then allowed to dry.
(§6) Disks were prepared using the dilutions described above for amphotericin B, nystatin and 5-fluorocytosine. 0.05 ml of the dilutions of each antifungal agent diluted with the appropriate nutrient medium were pipetted on 6.5 mm diameter disks. The disks were dried at 4° C. after each application. Control disks were also prepared.
(§7) Several test disks and a control disk were placed in each petri dish containing the inoculated agar. The disks and petri dishes were then incubated at 29° C. and the minimum inhibitory concentration of the various concentrations of the antifungal agents were read at 6, 12, 24, 36 and 48 hours.
(§8) In 10 duplicate runs with each strain tested, the variation in minimum inhibitory concentration averaged ±0.05 μg/ml.

[2] = tested on: C. parapsilosis; test: MIC by broth dilution method, Candida parapsilosis; type: cell-based; conditions: Lodderomyces parapsilosis
Source text: (§9) The preparation of the nutrient media, the antifungal agents and the fungi to be tested in the present invention are similar to those reported in S. Shadomy and A. Espinel-Ingroff, "Susceptibility Testing Of Antifungal Agents", Ch. 63, pp. 569-574 in E. H. Lennett, E. H. Spaulding, and J. P. Truant, Eds., Manual Of Clinical Microbiology, 2nd Ed., American Society for Microbiology, Washington, D.C. (1974). This publication describes the susceptibility testing of antifungal agents, namely, amphotericin B, nystatin and 5-fluoro-cytosine (5-FC), by the "broth dilution method" and the "semisolid agar dilution method". At pages 570-571, it is stated:
as §8
(§10) *Broth dilution method conducted in accordance with S. Shadomy and E.
(§11) Espinel-Ingroff, "Susceptibility Testing of Antifungal Agents", Ch. 63,
(§12) pp. 569-574 in E. H. Spaulding and J. P. Truant, Eds., Manual Of Clinical
(§13) Microbiology, 2nd Ed., American Society for Microbiology, Washington, […]

[3] = tested on: C. tropicalis; test: MIC by impregnated disk method, Candida tropicalis; type: cell-based; conditions: Candida tropicalis, read-out: Minimum Inhibitory Concentration, Disk
Experimental: as §1, §2
(§14) The minimum inhibitory concentration is defined as the lowest concentration of antifungal agent which inhibits visible growth. […]
(§15) Several test disks and a control disk were placed in each petri dish containing the inoculated agar. The disks and petri dishes were then incubated at 29° C. and the minimum inhibitory concentration of the various concentrations of the antifungal agents were read at 6, 12, 24, 36 and 48 hours. […]

[4] = tested on: C. tropicalis; test: MIC by broth dilution method, Candida tropicalis; type: cell-based; conditions: Candida tropicalis, read-out: Minimum Inhibitory Concentration, Broth
Source text: as §9, §8, §10, §11, §12, §13

[5] = tested on: Cryptococcus neoformans; test: MIC by impregnated disk method, Cryptococcus neoformans; type: cell-based; conditions: Cryptococcus neoformans
Experimental: as §1, §2, §3, §4, §5, §6, §7, §8

[6] = tested on: Cryptococcus neoformans; test: MIC by broth dilution method, Cryptococcus neoformans; type: cell-based; conditions: Cryptococcus neoformans
Source text: as §9, §8, §10, §11, §12, §13

[7] = tested on: Geotrichum candidum; test: MIC by impregnated disk method, Geotrichum candidum; type: cell-based; conditions: read-out: Minimum Inhibitory Concentration, Disk
Experimental: as §1, §2, §14, §15

[8] = tested on: Geotrichum candidum; test: MIC by broth dilution method, Geotrichum candidum; type: cell-based; conditions: read-out: Minimum Inhibitory Concentration, Broth
Source text: as §9, §8, §10, §11, §12, §13

[9] = tested on: Saccharomyces cerevisiae; test: MIC by broth dilution method, Saccharomyces cerevisiae; type: cell-based; conditions: Saccharomyces cerevisiae
Source text: as §9, §8, §10, §11, §12, §13

[10] = tested on: Trichosporon sp.; test: MIC by impregnated disk method, Trichosporon sp.; type: cell-based; conditions: Trichosporon, read-out: Minimum Inhibitory Concentration, Disk
Experimental: as §1, §2, §14, §15

[11] = tested on: Trichosporon sp.; test: MIC by broth dilution method, Trichosporon sp.; type: cell-based; conditions: Trichosporon, read-out: Minimum Inhibitory Concentration, Broth
Source text: as §9, §8, §10, §11, §12, §13

[12] = tested on: Candida albicans; test: Minimum fungicidal concentration by disk method; type: cell-based; conditions: 48 h
Experimental: Minimum fungicidal concentration is defined as the lowest concentration of antifungal agent from which subcultures were negative or where no overgrowth occurs. In tests of Candida albicans, the minimum inhibitory concentration can usually be determined at about 24 hours. Minimum fungicidal concentration may be determined by incubation for an additional 24 hours. At concentrations below the minimum fungicidal concentration, overgrowth occurs by 48 hours.
The minimal fungicidal concentrations of amphotericin B for the first 6 isolates of Candida albicans listed in Table 1 were determined by incubating the disks and organisms for 48 hours. At concentrations below the minimum fungicidal concentration, overgrowth occurred by 48 hours.

[13] = cited from earlier work

Compound `C[C@@H]1[C@H](O)[C@@H](C)/C=C/C=C/C=C/C=C/C=C/C=C/C=C/[C@H](O[C@@H]2O[C@H](C)[C@@H](O)[C@H](N)[C@@H]2O)C[C@@H]2O[C@](O)(C[C@@H](O)C[C@@H](O)[C@H](O)CC[C@@H](O)C[C@@H](O)CC(=O)O[C@H]1C)C[C@H](O)[C@H]2C(=O)O` [Amphotericin B, amphotericin B] has an MIC ([1]; read-out: Minimum Inhibitory Concentration, Disk, C. parapsilosis isolate 1) of 0.5 µg/mL (≈ 0.541 µM), an MIC ([1]; read-out: Minimum Inhibitory Concentration, Disk, C. parapsilosis isolate 2) of 0.6 µg/mL (≈ 0.649 µM) and an MIC ([2]; read-out: Minimum Inhibitory Concentration, Broth, C. parapsilosis isolate 1) of 0.8 µg/mL (≈ 0.866 µM). It also gave an MIC ([2]; read-out: Minimum Inhibitory Concentration, Broth, C. parapsilosis isolate 2) of 0.6 µg/mL (≈ 0.649 µM), an MIC [3] of 0.7 µg/mL (≈ 0.758 µM) and an MIC [4] of 0.8 µg/mL (≈ 0.866 µM). For the same compound, the MIC ([5]; read-out: Minimum Inhibitory Concentration, Disk, C. neoformans isolate 2) was 0.2 µg/mL (≈ 0.216 µM), the MIC ([5]; read-out: Minimum Inhibitory Concentration, Disk, C. neoformans isolate 3) was 0.5 µg/mL (≈ 0.541 µM) and the MIC ([5]; read-out: Minimum Inhibitory Concentration, Disk, Cryptococcus neoformans isolate 1) was 0.4 µg/mL (≈ 0.433 µM). The MIC ([6]; read-out: Minimum Inhibitory Concentration, Broth, C. neoformans isolate 2) was 0.4 µg/mL (≈ 0.433 µM), the MIC ([6]; read-out: Minimum Inhibitory Concentration, Broth, C. neoformans isolate 3) was 0.5 µg/mL (≈ 0.541 µM) and the MIC ([6]; read-out: Minimum Inhibitory Concentration, Broth, Cryptococcus neoformans isolate 1) was 0.5 µg/mL (≈ 0.541 µM). For the same compound, the MIC [7] was 0.8 µg/mL (≈ 0.866 µM), the MIC [8] was 0.9 µg/mL (≈ 0.974 µM) and the MIC ([9]; read-out: Minimum Inhibitory Concentration, Broth, S. cerevisiae isolate 2) was 0.8 µg/mL (≈ 0.866 µM). The MIC ([9]; read-out: Minimum Inhibitory Concentration, Broth, Saccharomyces cerevisiae isolate 1) was 0.4 µg/mL (≈ 0.433 µM), the MIC [10] was 0.9 µg/mL (≈ 0.974 µM) and the MIC [11] was 1.1 µg/mL (≈ 1.19 µM). It also gave an MFC ([12]; isolate 3, read-out: Minimum Fungicidal Concentration, Disk) of 0.9 µg/mL (≈ 0.974 µM), an MFC ([12]; isolate 4, read-out: Minimum Fungicidal Concentration, Disk) of 0.9 µg/mL (≈ 0.974 µM) and an MFC ([12]; isolate 6, read-out: Minimum Fungicidal Concentration, Disk) of 5 µg/mL (≈ 5.41 µM). It also gave an MFC ([12]; read-out: Minimum Fungicidal Concentration, Disk, isolate 1) of 1.4 µg/mL (≈ 1.52 µM), an MFC ([12]; read-out: Minimum Fungicidal Concentration, Disk, isolate 2) of 1.6 µg/mL (≈ 1.73 µM) and an MFC ([12]; read-out: Minimum Fungicidal Concentration, Disk, isolate 5) of 1.8 µg/mL (≈ 1.95 µM). For the same compound, the stability in acid ([13]; in the presence of acid) was “unstable in the presence of acid”, the thermal stability ([13]; upon incubation) was “subject to thermal destruction upon incubation” and the solubility in water ([13]; water) was “insoluble in water”.

Reference: patent US4168206A, “Impregnated disk method for testing antifungal susceptibility” (Philadelphia College of Osteopathic Medicine, priority 1977, dated 1979)
